Assay results as given in patent US20080160006A1, “Nutrient Medium for Maintaining Neural Cells in Injured Nervous System” (priority 2001, published 2008).

Legend:
human neurons = experiment: Survival of human neurons versus FGF2 concentration with or without DHEAS (FIG. 1); type: cell-based
Text: (§1) GENERAL METHODS. Brain tissue was ethically obtained by informed consent from patients before surgery under protocols approved by the Springfield Committee for Research on Human Subjects and the UC Irvine IRB. […] Rather than using aspiration to remove all tissue, slices of tissue 1-3 mm thick were obtained from cortical access ports or tissue that was marginal to the lesion. Use of electrocautery was kept to a minimum to reduce oxyradicals and other neuron damage. […] Hibernate A contains D-glucose, pyruvate, balanced salts, amino acids, and vitamins. B27 contains 5 antioxidants and 15 other components. […] After transport on ice to a laminar flow sterile hood in the culture laboratory, meninges and white matter were removed from the tissue with a scalpel and forceps in a 35 mm dish in 2 ml transport medium. […] The cell suspension was enriched for neurons by centrifugation on a density gradient of Optiprep (Invitrogen). […] The diluted Optiprep was further diluted with transport medium (v/v) to make a gradient containing 4 steps of 1 ml in a 15 ml centrifuge tube: bottom (0.35:0.65), 0.25:0.75, 0.2:0.8, top (0.15:0.85). Up to 6 ml of cell suspension was layered over the Optiprep step gradient. […] Cells were plated at a density of 320/mm^2 onto glass coverslips coated with polylysine as previously described. Cells were cultured in Neurobasal™ A medium (Invitrogen) with 2 percent B27, 5 ng/ml FGF2 (basic human recombinant fibroblast growth factor, Invitrogen) and 0.5 mM glutamine in a humidified atmosphere of 9 percent O2, and 5 percent CO2 (Forma, Marietta, Ohio). […] EGF (20 ng/ml; murine, Invitrogen) and NT3 (100 ng/ml; recombinant, Regeneron) were added as indicated from 500× stock solutions in 1 percent BSA/PBS. Half of the medium was replaced with fresh medium every 3-4 days.

[1] = test system: human cortical brain cells (neurons vs glia); experiment: Adult human cortical brain cells cultured in B27/Neurobasal A, immunostained for neurofilament and GFAP; type: cell-based; details: for % GFAP (mean ± S.D.) / % Neurofilament (mean ± S.D.): addition to B27/Neurobasal A, after 6 days
Text: as §1
For immunocytology, cultures were rinsed twice in warm PBS and fixed for 10 minutes in 4 percent paraformaldehyde in PBS. After rinsing twice with PBS, cells for GFAP staining were postfixed for 20 minutes in acetic acid/ethanol (1:9, v/v) before rinsing again with PBS. Non-specific sites were blocked, and cells were permeabilized for 5 minutes in 5 percent normal goat serum, and 0.5 percent Triton X-100. Cells were incubated with primary antibodies for 1 hour at 22° C. in 5 percent goat serum, and 0.05 percent Triton as follows: mouse anti-neurofilament 200 (1:40, Sigma) with rabbit anti-cow GFAP (1:2000, Dako), or mouse anti-MAP2 (1:250, Boeringer-Mannheim) with rabbit anti-tau (1:2000). After rinsing four times with PBS, cells were incubated 1 hour at 22° C. with a rhodamine-conjugate of goat anti-rabbit IgG (heavy+light chain, 1:500, Tago) together with a cy2-conjugate of goat anti-mouse IgG (heavy+light chain, 1:100, Jackson). After rinsing four times in PBS, coverslips were mounted with Aquamount and imaged through a Nikon 60×/1.4 objective using a Spot cooled CCD camera (Diagnostic Instruments).
Human cortical brain tissue was obtained for culture from eleven consecutive surgical cases, including seven tumor cases, three cases of epilepsy, and one case of suprabulbar palsy. Patients ranged in age from 41 to 70 years.
Neuronal Characteristics of Isolated Cells. Cytoskeletal components were used as specific markers to distinguish neurons from glia. Microtubule associated proteins, MAP2 and tau, are generally associated with somatodendritic and axonal regions of neurons, respectively. Neurofilament 200 is a common intermediate filament protein restricted to neurons, and GFAP is restricted to astroglia. All preparations were immunostained for at least one of these markers.

[2] = surgical sample 1, glioma r. temporal, 46 M
[3] = surgical sample 2, tumor r. temporal, 69 M

Q: For `C[C@]12CC[C@H](OS(=O)(=O)O)CC1=CC[C@@H]1[C@@H]2CC[C@]2(C)C(=O)CC[C@@H]12` [DHEAS, dehydroepiandrosterone 3-sulphate], which “lowering of the FGF2 ED50 for survival” value (human neurons; DHEAS at 10 μg/ml) is on record?
A: Its value is 10 fold.

Q: And the “survival at intermediate DHEAS concentrations” value (human neurons; DHEAS at 1 and 3 μg/ml, data not shown)?
A: The value was “intermediate survival between 0 and 10 μg/ml”.

Q: And the “survival with FGF2 at lower concentrations (FIG. 1)” value (human neurons; lower FGF2 concentrations)?
A: The value was “synergistic for survival with FGF2”.

Q: For “EGF: trophic factor EGF, murine, Invitrogen (NSYPGCPSSYDGYCLNGGVCMHIESLDSYTCNCVIGYSGDRCQTRDLRWWELR; Epidermal growth factor; UniProt P01132 977-1029, looked up)”, which “survival of neurofilament positive cells versus FGF2 alone” value ([1]; added in addition to FGF2, sample 4) is on record?
A: Its value is “no more efficacious”.

Q: What does the source list for “FGF2: basic human recombinant fibroblast growth factor, Invitrogen”?
A: % GFAP (mean ± S.D.) [1, 2]: 30 ± 7%; % Neurofilament (mean ± S.D.) [1, 2]: 67±7%; % GFAP (mean ± S.D.) [1, 3]: > 80%; % Neurofilament (mean ± S.D.) [1, 3]: < 10%; % Neurofilament (mean ± S.D.) ([1]; surgical sample 3, glioma l. frontal, 41 M): 84 ± 8%; % Neurofilament (mean ± S.D.) ([1]; surgical sample 4, epilepsy l. superior temp. gyrus, 33 F): 16 ± 5%; % Neurofilament (mean ± S.D.) ([1]; surgical sample 5, meningioma r. temporal, 70 µM): 17 ± 10%
